# According to patent US5773451A, “Substituted arylthioalkylthiopyridines” (BYK Gulden Lomberg Chemische Fabrik GmbH, priority 1993, dated 1998):
# Test system: Helicobacter pylori
# Assay: activity against Helicobacter pylori (MIC 50, Columbia agar, growth period of 4 days)
# Format: cell-based
# Settings: 96 h, Columbia agar (Oxoid), method of Iwahi et al., approximate values, read-out: Approx. MIC 50 value
# Source text: The compounds of formula I have been investigated in respect of their activity against Helicobacter pylori in accordance with the method described by Tomoyuki Iwahi et al. (Antimicrobial Agents and Chemo-therapy, 1991, 490-496) using Columbia agar (Oxoid) over a growth period of 4 days. The approximate MIC 50 values listed in the following Table 2 resulted from these tests for the compounds studied (the numbers stated for the compounds agree with the compound numbers in the description).
row,SMILES,MIC50
1,Cc1nnc(SCCCSc2ccnc(CSc3nc4ccccc4[nH]3)c2C)s1 [Compound 1],~0.1 µg/mL
2,"Cc1c(SCCCSc2nncn2C)ccnc1CSc1nc2ccccc2[nH]1 [Compound 2, 2-{[[3-Methyl-4-(3-(4-methyl-1,2,4-triazol-3-yl-thio)-propylthio)-2-pyridinyl]methyl]thio}-1H-benzimidazole]",~0.05 µg/mL
3,"Cc1c(SCCCSc2nccn2C)ccnc1CSc1nc2ccccc2[nH]1 [Compound 3, 2-{[[3-Methyl-4-(3-(1-methylimidazol-2-yl-thio)-propylthio)-2-pyridinyl]methyl]thio}-1H-benzimidazole]",~0.05 µg/mL
4,"Cc1c(SCCCSc2nnc(N)s2)ccnc1CSc1nc2ccccc2[nH]1 [Compound 5, 2-{[[4-[3-(5-Amino-1,3,4-thiadiazol-2-yl-thio)-propylthio]-3-methyl-2-pyridinyl]methyl]thio}-1H-benzimidazole]",~0.5 µg/mL
5,"Cc1c(SCCCSc2ncc[nH]2)ccnc1CSc1nc2ccccc2[nH]1 [Compound 6, 2-{[[4-[3-Imidazol-2-yl-thio-propylthio]-3-methyl-2-pyridinyl]methyl]thio}-1H-benzimidazole]",~0.1 µg/mL
6,"Cc1c(SCCCSc2nnnn2C)ccnc1CSc1nc2ccccc2[nH]1 [Compound 8, 2-{[[3-Methyl-4-(3-(1-methyl-tetrazol-5-yl-thio)-propylthio)-2-pyridinyl]methyl]thio}-1H-benzimidazole]",~0.05 µg/mL
7,"Cc1c(SCCCSc2nccs2)ccnc1CSc1nc2ccccc2[nH]1 [Compound 9, 2-{[[3-Methyl-4-(3-(thiazol-2-yl-thio)-propylthio)2-pyridinyl]methyl]thio}-1H-benzimidazole]",~0.05 µg/mL
8,"Cc1c(SCCCSc2ccccn2)ccnc1CSc1nc2ccccc2[nH]1 [Compound 10, 2-{[[3-Methyl-4-(3-(pyridin-2-yl-thio)-propylthio)-2-pyridinyl]methyl]thio}-1H-benzimidazole]",~0.05 µg/mL
9,"Cc1c(SCCCSc2ncccn2)ccnc1CSc1nc2ccccc2[nH]1 [Compound 11, 2-{[[3-Methyl-4-(3-(pyrimidin-2-yl-thio)-propylthio)-2-pyridinyl]methyl]thio}-1H-benzimidazole]",~0.05 µg/mL
10,Cc1c(SCCCSc2nc3ccccc3[nH]2)ccnc1CSc1nc2ccccc2[nH]1 [Compound 12],~0.05 µg/mL
11,Cc1c(SCCCSc2ccccc2)ccnc1CSc1nc2ccccc2[nH]1 [Compound 13],~0.05 µg/mL
12,"Cc1ccnc(SCCCSc2ccnc(CSc3nc4ccccc4[nH]3)c2C)n1 [Compound 16, 2-{[[3-Methyl-4-[3-(4-methyl-pyrimidine-2-yl-thio)-propylthio]-2-pyridinyl]methyl]thio}-1H-benzimidazole]",~0.05 µg/mL
13,"Cc1c(SCCCSc2nncs2)ccnc1CSc1nc2ccccc2[nH]1.Cl.Cl.Cl [Compound 18, 2-{[[3-Methyl-4-(3-(1,3,4-thiadiazol-2-yl-thio)-propylthio)-2-pyridinyl]methyl]thio}-1H-benzimidazole trihydrochloride]",~0.05 µg/mL
14,"Cc1c(SCCCSc2ccncc2)ccnc1CSc1nc2ccccc2[nH]1 [Compound 19, 2-{[[3-Methyl-4-(3-(pyridin-4-yl-thio)-propylthio)-2-pyridinyl]methyl]thio}-1H-benzimidazole]",~0.05 µg/mL
15,"Cc1c(SCCCCSc2nnnn2C)ccnc1CSc1nc2ccccc2[nH]1 [Compound 24, 2-{[[3-Methyl-4-(4-(1-methyl-tetrazol-5-yl-thio)-butylthio)-2-pyridinyl]methyl]thio}-1H-benzimidazole]",~0.05 µg/mL
